Laboratory results reported in paper PMC3740683, “ML212: A small-molecule probe for investigating fluconazole resistance mechanisms in Candida albicans” (Beilstein Journal of Organic Chemistry, 2013).
Values after ≈ are worked out from the molar mass of the structure shown. Read-outs that look alike come from different tables or passages of the source.

Assays:
C. albicans CaCi-8 = experiment: Secondary assay 1: CaCi-8 with 8 µg/mL fluconazole (Alamar Blue growth); format: cell-based, Candida albicans; details: for IC50: Candida albicans; for CaCi-8 IC50: 37 °C, 48 hours, with test compound and 8 µg/mL (26 µM) fluconazole, average of at least three independent experiments in duplicate, inactive = negligible activity at concentrations below 26 µM
Method: All of the compounds prepared above were evaluated for their ability to chemosensitize the C. albicans test strains CaCi-2 and CaCi-8 towards fluconazole. […] The DMSO/fluconazole combination served as an internal control. […]
(1/OD measured) × (desired final volume of inoculum) × 0.3 = volume of fungal culture (µL) to add to desired volume of growth medium. When added to media in wells, this yields a calculated starting OD of the fungal inoculum of 0.00015. […]
3) Use a Thermo Combi nL to dispense 20 µL/well of assay media into all wells. […]
EnVision (Perkin Elmer) plate reader setup: Ex 544 nm, Em 590 nm, bandwidth 12 nm, top read.
Secondary assay 1: CaCi-8 with 8 µg/mL fluconazole […]
35808016); geldanamycin (AG Scientific Catalog no. […]
PBS w/o calcium and magnesium (Cellgro Catalog no. 21-040-CV)
(§1) Synthetic defined growth medium
(§2) RPMI 1640 medium, (powder without sodium bicarbonate; Invitrogen Catalog no. […]
no. 028K0760); glucose 40% (w/v) in water (Sigma Catalog no. G-5400); MOPS buffer […]
1) Prepare 1× RPMI medium by dissolving 10.4 g powdered medium in 800 mL […]
(§3) 2) Add 34.52 g MOPS. While stirring, adjust pH to 7.0 with 10 N NaOH.
(§4) 3) Add 10 mL uridine solution, 50 mL glucose solution, adjust final volume to 1000 […]
Test strain: C. albicans CaCi-8
1) Inoculate 500 µL of strain from cryopreserved stock into a 250 mL shaker flask containing 30 mL growth medium. Shake at 30 °C overnight (16 hours).
2) Read OD 600 of 1 mL of fungal culture in a cuvette using a standard optical density reader (Eppendorf BioPhotometer Plus), with growth medium as a […]
3) Dilute to a desired volume of fungal inoculum according to following formula: […]
1) Add fluconazole stock solution to fungal inoculum to achieve 8 µg/mL.
2) Add Pen/Strep to media to 1% concentration.
4) Dispense geldanamycin in positive control wells using Thermo Combi nL for a final concentration of 3 µM.
5) Then, pin 100 nL of test compound from compound plates into assay plates using a CyBi-Well pin tool.
6) Dispense 20 µL/well of culture into the assay media in all wells.
7) Incubate the plates in a humidified (90% humidity) Liconic incubator at 37 °C without agitation for 48 hours.
8) Dilute Alamar Blue 1:40 in Ca/Mg-free PBS.
9) To all plates, add 5 µL/well of the diluted Alamar Blue to plates to a final dilution […]
10) Incubate the plates for 2 hours. […]

Solubility in PBS = format: physicochemical; details: aqueous buffer
C. albicans CaCi-2 = experiment: Primary screen and dose-response retest: CaCi-2 with 8 µg/mL fluconazole (Alamar Blue growth); format: cell-based, Candida albicans; details: for IC50: Candida albicans, CACI2
Method: All of the compounds prepared above were evaluated for their ability to chemosensitize the C. albicans test strains CaCi-2 and CaCi-8 towards fluconazole. […] The DMSO/fluconazole combination served as an internal control.
Protocols for cellular assays
Primary screen and dose-response retest: CaCi-2 with 8 µg/mL fluconazole […]
Clear, flat-bottom, black, 384-well plates (Corning Catalog no. 3712BC; Lot no. […]
DMSO; Fluconazole (Sequoia Research Products Ltd) 2 mg/mL stock solution in PBS; […]
(AG Scientific Catalog no. DAL 1100; Lot no.151016SA); PBS without calcium and magnesium (Cellgro Catalog no. 21-040-CV)
as §1, §2
no. 028KO760); Glucose 40% (w/v) in water (Sigma Catalog no. G-5400); MOPS buffer […]
1) Prepare 1× RPMI medium by dissolving 10.4 grams powdered medium in 800 […]
as §3, §4
Test Strain: C. albicans CaCi-2
1) Inoculate 500 µL of strain from cryopreserved stock into a 250 mL shaker flask containing 30 mL growth medium. Shake at 30 °C overnight.
2) Read OD 600 of 1 mL fungal culture in a cuvette using a standard optical density reader (Eppendorf BioPhotometer Plus), with growth medium as a background […]
3) Dilute to desired volume of fungal inoculums according to the following formula:
(1/OD measured) × (desired final volume of inoculum) × 0.3 = volume of fungal culture (µL) to add to desired volume of growth medium. When added to media in wells, this yields a calculated starting OD of the fungal inoculum of 0.00015.
1) Add fluconazole stock solution to fungal inoculum to achieve a final concentration […]
2) Add Pen/Strep at 0.1 mL per 10 mL media (1% v/v).
3) Use a Thermo Combi nL to dispense 20 µL/well of assay media into all wells.
4) Pin 25 nL test compound from compound plates into assay plates using CyBi- […]
5) Dispense 20 µL/well of culture into the assay media in all wells.
6) Incubate plates in a humidified (90% humidity) Liconic incubator at 37 °C without […]
7) Dilute Alamar Blue Reagent 1:40 in Ca/Mg-free PBS.
8) To all plates, add 5 µL/well of the diluted Alamar to a final dilution factor of 1:200.
9) Incubate the plates for an additional 2 hours.
10) Read the relative fluorescence intensity (RFU) of wells on a standard plate reader as a measure of relative fungal growth. EnVision (Perkin Elmer) plate reader setup: Ex 544 nm, Em 590 nm, bandwidth 12 nm, top read. […]

[1] = Secondary assay 3: fibroblast toxicity; format: cell-based; details: mouse, NIH-3T3 fibroblasts, murine 3T3 fibroblasts
Method: 11) Read relative fluorescence intensity (RFU) of wells on a standard plate reader as […]
measure of relative fungal growth. EnVision (Perkin Elmer) plate reader settings: […]
Secondary assay 3: fibroblast toxicity
Clear, flat-bottom, black, 384-well plates (Corning Catalog no. 3712BC Lot no.
35808016); geldanamycin (AG Scientific Catalog no. G-1047) 15 mM stock solution in […]
DMSO; fluconazole (Sequoia Research Ltd.) 2 mg/mL stock solution in PBS; Alamar […]
Blue (AG Scientific Catalog no. DAL1100, Lot no. 151016SA); PBS w/o calcium and […]
magnesium (Cellgro Catalog no. 21-040-CV)
Optimem medium (Invitrogen Catalog no. 31985-070; Lot no. 548536); 2.5% (v/v) fetal […]
bovine serum (Hyclone Catalog no.30071.03; Lot no. ARF26748); 1% (v/v) Pen/Strep […]
Test strain: NIH-3T3 mammalian fibroblasts (ATCC CRL No. 1658) […]
1) Plate cells in 384-well plates at 6,000 cells/well in 20 µL assay medium.
2) Incubate plates overnight at 37 °C under 5% CO2.
1) After overnight culture, pin compounds into wells at 100 nL/well using the CyBio […]
CyBi-Well pinning instrument.
2) After pinning compounds, add 20 µL of assay medium supplemented with […]
fluconazole to each well. […]
6) Read the relative fluorescence intensity (RFU) of wells on a standard plate reader as a measure of relative cell growth. EnVision (Perkin Elmer) plate reader […]
setup: Ex 544 nm, Em […], bandwidth12 nm, top read.

CaCi-2 = tested on: CaCi-2; parameters: method as in PMID 8161633; details: CaCi-2 clinical isolate; cited from earlier work
CaCi-8 = tested on: CaCi-8; parameters: method as in PMID 8161633; details: CaCi-8 clinical isolate; cited from earlier work
[2] = CACI8, 48 h, read-out: CaCi-8 IC50
[3] = 37 °C, 48 hours, with test compound and 8 µg/mL (26 µM) fluconazole, average of at least three independent experiments in duplicate, inactive = negligible activity at concentrations below 26 µM

Row | Compound | IC50 (C. albicans CaCi-8; [2]) [µM] | IC50 (C. albicans CaCi-2; [3]) [µM] | CaCi-8 IC50 (C. albicans CaCi-8) | CaCi-2 IC50 (C. albicans CaCi-2; [3]) | also measured
1 | COC(=O)Cn1nc(-c2ccccc2)c2ccccc21 [Compound 1] | 3.5 ± 1.9 | 2.2 ± 1 | – | – | IC50 (C. albicans CaCi-8; CACI8, read-out: CaCi-8 IC50): 2.3 µM; solubility (Solubility in PBS): 79 µM (≈ 21 µg/mL); IC50 (C. albicans CaCi-2; commercial sample, hit revalidation, with 8 µg/mL fluconazole): 0.8 µM; IC50 at 48 h [1]: > 26 µM
2 | COC(=O)Cn1nc(-c2ccccc2)c2cc(C)ccc21 [Compound 11] | 8.2 ± 3.2 | 5.2 ± 2.2 | – | – | –
3 | COC(=O)Cn1nc(-c2ccccc2)c2cc(OC)ccc21 [Compound 12] | 22.1 ± 6.2 | 14.9 ± 5.7 | – | – | –
4 | COC(=O)Cn1nc(-c2ccccc2)c2cc(F)ccc21 [Compound 13] | – | 11.2 ± 7.2 | inactive | – | –
5 | COC(=O)Cn1nc(-c2ccccc2)c2cc(Cl)ccc21 [Compound 14] | – | – | inactive | inactive | –
6 | COC(=O)Cn1nc(-c2ccccc2)c2ccc(C)cc21 [Compound 15] | – | 5.9 ± 3.1 | inactive | – | –
7 | COC(=O)Cn1nc(-c2ccccc2)c2ccc(OC)cc21 [Compound 16] | 12.4 ± 0.5 | 9.5 ± 2.5 | – | – | –
8 | COC(=O)Cn1nc(-c2ccccc2)c2ccc(Cl)cc21 [Compound 17] | 8.4 ± 0.5 | 4 ± 1.3 | – | – | –
9 | COC(=O)Cn1nc(-c2ccccc2)c2ccc(C(F)(F)F)cc21 [Compound 18] | – | – | inactive | inactive | –
10 | COC(=O)Cn1nc(-c2ccccc2)c2cccc(C(F)(F)F)c21 [Compound 19] | – | – | inactive | inactive | –
11 | COC(=O)Cn1nc(-c2ccccc2)c2cccnc21 [Compound 20] | – | – | inactive | inactive | –
12 | COC(=O)Cn1ncc2ccccc21 [Compound 21] | – | – | inactive | inactive | –
13 | CCc1nn(CC(=O)OC)c2ccccc12 [Compound 22] | – | – | inactive | inactive | –
14 | COC(=O)Cn1nc(C(C)(C)C)c2ccccc21 [Compound 23] | – | – | inactive | inactive | –
15 | COC(=O)Cn1nc(C2CC2)c2ccccc21 [Compound 24] | – | – | inactive | inactive | –
16 | COC(=O)Cn1nc(C2CCCCC2)c2ccccc21 [Compound 25] | 6 ± 1.7 | 2.3 ± 0.3 | – | – | –

Row | Compound | IC50 (C. albicans CaCi-8; [2]) [µM] | IC50 (C. albicans CaCi-2; [3]) [µM] | CaCi-8 IC50 (C. albicans CaCi-8) | CaCi-2 IC50 (C. albicans CaCi-2; [3]) | also measured
17 | COC(=O)Cn1nc(-c2cccnc2)c2ccccc21 [Compound 26] | – | – | inactive | inactive | –
18 | COC(=O)Cn1nc(-c2cncnc2)c2ccccc21 [Compound 27] | 21.1 ± 3.3 | – | – | inactive | –
19 | COC(=O)Cn1nc(-c2cnco2)c2ccccc21 [Compound 28] | – | – | inactive | inactive | –
20 | COC(=O)Cn1nc(-c2cscn2)c2ccccc21 [Compound 29] | – | 12.9 ± 1.7 | inactive | – | –
21 | COC(=O)Cn1nc(-c2ccc(C)cc2)c2ccccc21 [Compound 30] | 19.5 ± 14.2 | 4.8 ± 2.5 | – | – | –
22 | COC(=O)Cn1nc(-c2ccc(OC)cc2)c2ccccc21 [Compound 31] | 14.1 ± 6.4 | 4.2 ± 1.7 | – | – | –
23 | COC(=O)Cn1nc(-c2ccc(F)cc2)c2ccccc21 [Compound 32] | 12.3 ± 3.9 | 8.3 ± 2.8 | – | – | –
24 | COC(=O)Cn1nc(-c2ccc(C(F)(F)F)cc2)c2ccccc21 [Compound 33] | – | > 26 | inactive | inactive | –
25 | COC(=O)Cn1nc(-c2ccc(C#N)cc2)c2ccccc21 [Compound 34] | 20.5 ± 0.3 | > 26 | – | inactive | –
26 | COC(=O)Cn1nc(-c2cccc(C)c2)c2ccccc21 [Compound 35] | 1.9 ± 0.9 | 1.1 ± 0.6 | – | – | –
27 | COC(=O)Cn1nc(-c2cccc(N(C)C)c2)c2ccccc21 [Compound 37] | 2 ± 0.2 | 0.8 ± 0.1 | – | – | –
28 | COC(=O)Cn1nc(-c2cccc(F)c2)c2ccccc21 [Compound 38] | 4.2 ± 4.1 | 1.7 ± 0.4 | – | – | –
29 | COC(=O)Cn1nc(-c2ccccc2C)c2ccccc21 [Compound 39] | 7.8 ± 2.6 | 5.3 ± 0.5 | – | – | –
30 | COC(=O)Cn1nc(-c2ccccc2OC)c2ccccc21 [Compound 40] | 11.4 ± 1.7 | 9.3 ± 3.6 | – | – | –
31 | COC(=O)Cn1nc(-c2cc(OC)cc(OC)c2)c2ccccc21 [Compound 41] | – | – | inactive | inactive | –
32 | OC(Cn1cncn1)(Cn1cncn1)c1ccc(F)cc1F [fluconazole] | – | – | – | – | minimum inhibitory concentration (MIC) (CaCi-2): 2 µg/mL (≈ 6.53 µM); minimum inhibitory concentration (MIC) (CaCi-8): 8 µg/mL (≈ 26.1 µM)
